System: QSOX-1b
Test: QSOX1-b protein abundance by Western blotting in MDA-MB-231 cells
Format: cell-based, human
Procedure: Measuring Protein Abundance by Western Blotting. MDA-MB-231 cells were seeded in 6-well plates at ˜50% confluency and treated with vehicle (DMSO) or compound as described above but without EU treatment. After 16 h, the compound-containing growth medium was removed and replaced with fresh medium containing compound (re-dosing). After an additional 32 h incubation, total protein was harvested (48 h total treatment time). The cells were then washed twice with cold 1×DPBS, and total protein was harvested by using Mammalian Protein Extraction Reagent (M-PER, Thermo Scientific) per the manufacturer's protocol. Protein concentration was quantified by using BCA Protein Assay Kit (Pierce), and the proteins were separated by using 10% SDS-polyacrylamide gel (20 μg protein per lane). After gel electrophoresis in 1× Running Buffer (50 mM MOPS, 50 mM Tris-base, pH 7.5, 1 mM EDTA, and 0.1% (w/v) SDS) at 120 V for 1 h, the proteins were transferred to a PVDF membrane (0.45 μm, Cytiva) at 300 mA for 1 h in 1× Transfer Buffer (25 mM Bicine, 25 mM Tris-base, pH 7.5, 1:4 MeOH:H2O). The membrane was blocked with 5% (w/v) non-fat dry milk in TBST (1×TBS containing 0.1% (v/v) Tween-20) for 1 h at room temperature. […] Expression levels of proteins were quantified based on band intensity by using ImageJ. […]

CCOC(=O)C1=C(Nc2ccccc2)S/C(=C\c2ccc(OCCOCCOCCOCCNC(=O)CCC(=O)N(C)[C@H]3CC[C@@H](c4ccc(Cl)c(Cl)c4)c4ccccc43)c(O)c2)C1=O [Compound F1-RIBOTAC]
effect on QSOX-1b levels: no effect

From US20250346943A1, “DEGRADER COMPOUNDS OF QSOX1 mRNA” (UNIVERSITY OF FLORIDA RESEARCH FOUNDATION, INCORPORATED, priority 2022, published 2025)
